Assay results as given in patent US20110251238A1, “PPAR AGONIST COMPOSITIONS AND METHODS OF USE” (BIOPHARMED, priority 2008, published 2011).
Converted amounts (≈) assume the structure as drawn. Where two headings read alike, the source gives them in different places.

Key:
SKMEL28 (human melanoma) = assay: Growth inhibition, MTT colorimetric assay, SKMEL-28; format: cell-based; settings: read-out: IC50 SKMEL-28
Description: (§1) Compounds that met the criteria for activity on KB3 cells were further tested for drug growth inhibitory activity in 5 carcinoma, 6 glioma and 3 melanoma cell lines, shown in Table 4. A549 (human lung adenocarcinoma epithelial), BxPC3 (pancreatic cancer), LoVo (colon cancer), MCF-7 (epithelial breast cancer), PC3 (human prostate cancer), Hs683 (human glioma), T98G (glioblastoma), U373 (human glioblastoma-astrocytoma), U138 MG (human glioma), epithelial-like), SKMEL28 (human melanoma), B16-F10 (mouse melanoma) and RhTP (rhabdomyosarcoma) cell lines were cultured in presence of the drugs for 3 days. The cytotoxic activity is expressed as (IC50). Inhibition of cell proliferation measured by the MTT colorimetric assay. The values reported in Table 4 are means of six distinct values. The standard errors are <5% as compared to the mean values.

Host = assay: Growth inhibition, MTT colorimetric assay, Host; format: cell-based; settings: read-out: IC50 Host
Description: as §1

[1] = test system: bloodstream forms of T. brucei and T. congolense; assay: Trypanocidal activity in vitro, Alamar Blue assay; format: cell-based, Trypanosoma brucei and T. congolense
Excerpt: Trypanosoma brucei and T. congolense are the causative agents of sleeping sickness in humans and nagana in cattle, respectively. The protozoan parasites live extracellularlyin blood and tissue fluids of mammals and are transmitted by the bite of infected tsetse flies (Glossina spp.). Here the trypanocidal activity against bloodstream forms of T. brucei and T. congolense of bis-8-hydroxy quinoline N-substituted benzylamines derivatives was investigated in vitro, according to methods described in. Steverding et al. (2006) Kinetoplastid Biology and Disease, 5(3): 1-5; Hongmance et al., (2007) Antimicrob. Agents Chemother. 51:1105-1106; and Zhao et al., (2005) Bio-org. Med. Chem.; 13: 3921-3926. Cells were seeded into 96-well tissue culture plates in 200 μl medium containing various concentrations of analogues dissolved in H2O. The controls contained the respective solvent alone. […] After 24 h (trypanosomes) or 43 h (HL-60) incubation, 20 μl of the colorimetric viability indicator Alamar Blue® was added to each well. The cells were incubated for a further 24 h (trypanosomes) or 5 h (HL-60) so that the total incubation time was 48 h. Then, the plates were read on a Dynatech MR5000ELISA reader (Denkendorf, Germany),using a test wavelength of 550 nm and a reference wave length of 630 nm. Each test was set up in duplicate and repeated three times. For comparison, the general cytotoxicity of the compounds was assayed with human myeloid leukaemia HL-60 cells. The anti-trypanosomal activities and the general cytotoxicities of the new analogues were evaluated using the Alamar Blue® assay.

[2] = test system: MCF-7 (epithelial breast cancer); assay: Growth inhibition, MTT colorimetric assay, MCF7; format: cell-based; settings: read-out: IC50 MCF7
Description: as §1, with “A549” for “Compounds that met the criteria for activity on KB3 cells were further tested for drug growth inhibitory activity in 5 carcinoma, 6 glioma and 3 melanoma cell lines, shown in Table 4. A549”, “values.” for “values. The standard errors are <5% as compared to the mean values.”

T98G (glioblastoma) = assay: cells; format: cell-based; settings: read-out: IC50 T98G
Description: as §1, with “A549” for “Compounds that met the criteria for activity on KB3 cells were further tested for drug growth inhibitory activity in 5 carcinoma, 6 glioma and 3 melanoma cell lines, shown in Table 4. A549”, “values.” for “values. The standard errors are <5% as compared to the mean values.”

RhTP (rhabdomyosarcoma) = assay: Growth inhibition, MTT colorimetric assay, RhTp; format: cell-based; settings: read-out: IC50 RhTp
Description: as §1

U138 MG (human glioma) = assay: Growth inhibition, MTT colorimetric assay, U138; format: cell-based; settings: read-out: IC50 U138
Description: as §1

[3] = test system: KB3 (epitheloid lung cancer) cell lines; assay: Cell growth inhibition (cytotoxicity), MTS assay, KB3 cell line; format: cell-based; settings: KB3; Table 3A; MTS assay, triplicate; read-out: KB3 IC50
Description: Cell growth inhibition was determined by the MTS assay; the number of viable cells were proportional to the extent of formazan production in the presence or absence of drugs. […]

[4] = test system: PC3 (human prostate cancer); assay: Growth inhibition, MTT colorimetric assay, PC3; format: cell-based; settings: read-out: IC50 PC3
Description: as §1

LoVo (colon cancer) = assay: Growth inhibition, MTT colorimetric assay, LoVo; format: cell-based; settings: read-out: IC50 LoVo
Description: as §1, with “A549” for “Compounds that met the criteria for activity on KB3 cells were further tested for drug growth inhibitory activity in 5 carcinoma, 6 glioma and 3 melanoma cell lines, shown in Table 4. A549”, “values.” for “values. The standard errors are <5% as compared to the mean values.”

Hs683 (human glioma) = assay: Growth inhibition, MTT colorimetric assay, HS683; format: cell-based; settings: read-out: IC50 HS683
Description: as §1, with “A549” for “Compounds that met the criteria for activity on KB3 cells were further tested for drug growth inhibitory activity in 5 carcinoma, 6 glioma and 3 melanoma cell lines, shown in Table 4. A549”, “values.” for “values. The standard errors are <5% as compared to the mean values.”

KaKa = assay: Growth inhibition, MTT colorimetric assay, KaKa; format: cell-based; settings: read-out: IC50 KaKa
Description: as §1

[5] = test system: A549 (human lung adenocarcinoma epithelial); assay: Growth inhibition, MTT colorimetric assay, A549; format: cell-based; settings: read-out: IC50 A549
Description: as §1, with “A549” for “Compounds that met the criteria for activity on KB3 cells were further tested for drug growth inhibitory activity in 5 carcinoma, 6 glioma and 3 melanoma cell lines, shown in Table 4. A549”, “values.” for “values. The standard errors are <5% as compared to the mean values.”

[6] = test system: BxPC3 (pancreatic cancer); assay: Growth inhibition, MTT colorimetric assay, BxPC3; format: cell-based, human; settings: read-out: IC50 BxPC3
Description: Cells are cultured at 37° C. in Falcon culture dishes, incubated at 5% CO2 in a suitable culture medium available from Invitrogen Corp. Anti-proliferative activity is determined by an MTT assay (bromide of (3-[4,5-dimethylthiazolium-yl]diphenyltetrazolium)). According to one standard protocol, absorbance is measured at 570 nm (see Dumont et al. (2007) Neoplasia 9: 766-776.
as §1, with “A549” for “Compounds that met the criteria for activity on KB3 cells were further tested for drug growth inhibitory activity in 5 carcinoma, 6 glioma and 3 melanoma cell lines, shown in Table 4. A549”, “values.” for “values. The standard errors are <5% as compared to the mean values.”

GL19 = assay: Growth inhibition, MTT colorimetric assay, GL19; format: cell-based; settings: read-out: IC50 GL19
Description: as §1

B16-F10 (mouse melanoma) = assay: Growth inhibition, MTT colorimetric assay, B16F10; format: cell-based; settings: read-out: IC50 B16F10
Description: as §1

[7] = test system: U373 (human glioblastoma-astrocytoma); assay: Growth inhibition, MTT colorimetric assay, U373; format: cell-based; settings: read-out: IC50 U373
Description: as §1

[8] = 72 h, 3 days with drug, means of six values, unit inferred
[9] = 50% growth inhibition, 48 h total incubation, read-out: GI50
[10] = lowest concentration at which all cells were killed, 48 h total incubation, read-out: MIC
[11] = melanoma, 3 days with drug, means of six values, unit inferred
[12] = 3 days with drug, means of six values, unit inferred
[13] = carcinoma, 3 days with drug, means of six values, unit inferred
[14] = glioma, 3 days with drug, means of six values, unit inferred

**Q.** How did the IC50 (SKMEL28 (human melanoma); Homo sapiens, SK-MEL-28, 72 h, melanoma, 3 days with drug, means of six values, unit inferred) turn out when `Oc1ccc(CN(Cc2cccc(C(F)(F)F)c2)Cc2ccc(O)c3ncccc23)c2cccnc12` [BPM19,189, 5,5′-(3-(trifluoromethyl)benzylazanediyl)bis(methylene)diquinolin-8-ol] was run?
**A.** > 10 µM

**Q.** And the IC50 (Host; [8])?
**A.** 0.679 µM

**Q.** What about the GI50 [1, 9] of the same molecule?
**A.** 0.31 ± 0.01 µM

**Q.** And the MIC [1, 10]?
**A.** 1 µM (≈ 0.489 µg/mL)

**Q.** What about the IC50 ([2]; Homo sapiens, MCF7, 72 h, carcinoma, 3 days with drug, means of six values, unit inferred) of the same molecule?
**A.** 0.03 µM

**Q.** And the IC50 (T98G (glioblastoma); Homo sapiens, T98G, 72 h, glioma, 3 days with drug, means of six values, unit inferred)?
**A.** 0.057 µM

**Q.** And the IC50 (RhTP (rhabdomyosarcoma); [8])?
**A.** 0.069 µM

**Q.** What about the IC50 (U138 MG (human glioma); Homo sapiens, U138-MG, 72 h, glioma, 3 days with drug, means of six values, unit inferred) of the same molecule?
**A.** 0.047 µM

**Q.** And the IC50 [3]?
**A.** 2.2 µM

**Q.** And the IC50 ([4]; Homo sapiens, 72 h, carcinoma, 3 days with drug, means of six values, unit inferred)?
**A.** 0.037 µM

**Q.** What about the IC50 (LoVo (colon cancer); Homo sapiens, LoVo, 72 h, carcinoma, 3 days with drug, means of six values, unit inferred) of the same molecule?
**A.** 0.094 µM

**Q.** And the IC50 (Hs683 (human glioma); Homo sapiens, Hs 683, 72 h, glioma, 3 days with drug, means of six values, unit inferred)?
**A.** 0.036 µM

**Q.** What about the IC50 (KaKa; [8]) of the same molecule?
**A.** 6.47 µM

**Q.** And the IC50 ([5]; Homo sapiens, A549, 72 h, carcinoma, 3 days with drug, means of six values, unit inferred)?
**A.** 0.038 µM

**Q.** What about the IC50 ([6]; Homo sapiens, BXPC-3, 72 h, carcinoma, 3 days with drug, means of six values, unit inferred) of the same molecule?
**A.** 0.167 µM

**Q.** What about the IC50 (GL19; GL19, 72 h, 3 days with drug, means of six values, unit inferred) of the same molecule?
**A.** 0.674 µM

**Q.** And the IC50 (B16-F10 (mouse melanoma); Mus musculus, B16-F10, 72 h, melanoma, 3 days with drug, means of six values, unit inferred)?
**A.** 0.089 µM

**Q.** What about the IC50 ([7]; Homo sapiens, U373 MG, 72 h, glioma, 3 days with drug, means of six values, unit inferred) of the same molecule?
**A.** 0.065 µM

**Q.** How did the IC50 (SKMEL28 (human melanoma); [11]) turn out when `Oc1ccc(CN(Cc2ccc(O)c3ncccc23)CC2CCCCC2)c2cccnc12` [BPM19,219, 5,5′-cyclohexylmethylazanediyl-bis-[(methylene)di(quinolin-8-ol)]] was run?
**A.** > 10 µM

**Q.** What about the IC50 (Host; [12]) of the same molecule?
**A.** 1.54 µM

**Q.** And the GI50 [1, 9]?
**A.** 2.95 ± 0.18 µM

**Q.** And the MIC [1, 10]?
**A.** 10 µM (≈ 4.28 µg/mL)

**Q.** And the IC50 [2, 13]?
**A.** 0.365 µM

**Q.** And the IC50 (T98G (glioblastoma); [14])?
**A.** 0.486 µM

**Q.** And the IC50 (RhTP (rhabdomyosarcoma); [12])?
**A.** 0.865 µM

**Q.** And the IC50 (U138 MG (human glioma); [14])?
**A.** 0.446 µM

**Q.** And the IC50 [4, 13]?
**A.** 0.421 µM

**Q.** What about the IC50 (LoVo (colon cancer); [13]) of the same molecule?
**A.** 0.357 µM

**Q.** And the IC50 (Hs683 (human glioma); [14])?
**A.** 0.584 µM

**Q.** And the IC50 (KaKa; [12])?
**A.** 5.94 µM

**Q.** What about the IC50 [5, 13] of the same molecule?
**A.** 0.369 µM

**Q.** And the IC50 [6, 13]?
**A.** 3.81 µM

**Q.** And the IC50 (GL19; [12])?
**A.** 8.97 µM

**Q.** What about the IC50 (B16-F10 (mouse melanoma); [11]) of the same molecule?
**A.** 0.873 µM

**Q.** And the IC50 [7, 14]?
**A.** 2.57 µM

**Q.** What does the source list for `Oc1ccc(CN(Cc2cccs2)Cc2ccc(O)c3ncccc23)c2cccnc12` [BPM18,202, 5,5′-(thiophen-2-ylmethylazanediyl)bis(methylene)diquinolin-8-ol]?
**A.** IC50 (SKMEL28 (human melanoma); Homo sapiens, SK-MEL-28, 72 h): 4.83 µM; IC50 (Host; 72 h): 1.73 µM; GI50 ([1]; 48 h): 0.31 ± 0.01 µM; MIC ([1]; 48 h): 1 µM (≈ 0.428 µg/mL); IC50 ([2]; Homo sapiens, MCF7, 72 h): 0.035 µM; IC50 (T98G (glioblastoma); Homo sapiens, T98G, 72 h): 0.088 µM; IC50 (RhTP (rhabdomyosarcoma); 72 h): 0.079 µM; IC50 (U138 MG (human glioma); Homo sapiens, U138-MG, 72 h): 0.044 µM; IC50 [3]: 0.002 µM; IC50 ([4]; Homo sapiens, 72 h): 0.044 µM; IC50 (LoVo (colon cancer); Homo sapiens, LoVo, 72 h): 0.04 µM; IC50 (Hs683 (human glioma); Homo sapiens, Hs 683, 72 h): 0.035 µM; IC50 (KaKa; 72 h): 1.76 µM; IC50 ([5]; Homo sapiens, A549, 72 h): 0.027 µM; IC50 ([6]; Homo sapiens, BXPC-3, 72 h): 0.089 µM; IC50 (GL19; GL19, 72 h): 3.45 µM; IC50 (B16-F10 (mouse melanoma); Mus musculus, B16-F10, 72 h): 0.086 µM; IC50 ([7]; Homo sapiens, U373 MG, 72 h): 0.085 µM
